In patent publication US8604061B2, “2-aminooxazolines as TAAR1 ligands” (Hoffmann-La Roche Inc., priority 2007, dated 2013) one finds Ki and Kd data, which are given here for 19 molecules.

Assay [1] addresses TAAR1 (Rattus norvegicus, UniProt Q923Y9). Briefly: TAAR1 radioligand binding, membranes of stably transfected HEK293 cells (rat). The conditions noted are these: cell marked 'rat'; radioligand [3H]-rac-2-(1,2,3,4-tetrahydro-1-naphthyl)-2-imidazoline, 4° C.; read-out: Ki (μM) mouse/rat. The method, then:
For the construction of expression plasmids the coding sequences of human, rat and mouse TAAR 1 were amplified from genomic DNA essentially as described by Lindemann et al.. The Expand High Fidelity PCR System (Roche Diagnostics) was used with 1.5 mM Mg^2+ and purified PCR products were cloned into pCR2.1-TOPO cloning vector (Invitrogen) following the instructions of the manufacturer. PCR products were subcloned into the pIRESneo2 vector (BD Clontech, Palo Alto, Calif.), and expression vectors were sequence verified before introduction in cell lines.
HEK293 cells (ATCC #CRL-1573) were cultured essentially as described Lindemann et al. (2005). For the generation of stably transfected cell lines HEK293 cells were transfected with the pIRESneo2 expression plasmids containing the TAAR coding sequences (described above) with Lipofectamine 2000 (Invitrogen) according to the instructions of the manufacturer, and 24 hrs post transfection the culture medium was supplemented with 1 mg/ml G418 (Sigma, Buchs, Switzerland). After a culture period of about 10 d clones were isolated, expanded and tested for responsiveness to trace amines (all compounds purchased from Sigma) with the cAMP Biotrak Enzyme immunoassay (EIA) System (Amersham) following the non-acetylation EIA procedure provided by the manufacturer.
Cells at confluence were rinsed with ice-cold phosphate buffered saline without Ca^2+ and Mg^2+ containing 10 mM EDTA and pelleted by centrifugation at 1000 rpm for 5 min at 4° C. The pellet was then washed twice with ice-cold phosphate buffered saline and cell pellet was frozen immediately by immersion in liquid nitrogen and stored until use at −80° C. Cell pellet was then suspended in 20 ml HEPES-NaOH (20 mM), pH 7.4 containing 10 mM EDTA, and homogenized with a Polytron (PT 3000, Kinematica) at 10,000 rpm for 10 s. The homogenate was centrifuged at 48,000×g for 30 min at 4° C. and the pellet resuspended in 20 ml HEPES-NaOH (20 mM), pH 7.4 containing 0.1 mM EDTA (buffer A), and homogenized with a Polytron at 10,000 rpm for 10 s. The homogenate was then centrifuged at 48,000×g for 30 min at 4° C. and the pellet resuspended in 20 ml buffer A, and homogenized with a Polytron at 10,000 rpm for 10 s. Protein concentration was determined by the method of Pierce (Rockford, Ill.). The homogenate was then centrifuged at 48,000×g for 10 min at 4° C., resuspended in HEPES-NaOH (20 mM), pH 7.0 including MgCl2 (10 mM) and […] homogenized with a Polytron at 10,000 rpm for 10 s.
Binding assay was performed at 4° C. in a final volume of 1 ml, and with an incubation time of 30 min. […] Non-specific binding was defined as the amount of [^3H]-rac-2-(1,2,3,4-tetrahydro-1-naphthyl)-2-imidazoline bound in the presence of the appropriate unlabelled ligand (10 μM). Competing ligands were tested in a wide range of concentrations (10 pM-30 μM). […] Each experiment was performed in duplicate. All incubations were terminated by rapid filtration through UniFilter-96 plates (Packard Instrument Company) and glass filter GF/C, pre-soaked for at least 2 h in polyethylenimine 0.3%, and using a Filtermate 96 Cell Harvester (Packard Instrument Company). The tubes and filters were then washed 3 times with 1 ml aliquots of cold buffer B. Filters were not dried and soaked in Ultima gold (45 μl/well, Packard Instrument Company) and bound radioactivity was counted by a TopCount Microplate Scintillation Counter (Packard Instrument Company).

Assay [2] concerns TAAR1. Put plainly: TAAR1 radioligand binding, membranes of stably transfected HEK293 cells (mouse). The settings on record: TAAR1 binding assay, species not stated; read-out: calculated Kd value of the radioligand. The method in brief: (§1)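 Competition binding on membranes from HEK293 cells stably expressing the TAAR1 species ortholog, in HEPES-NaOH pH 7.0 with 10 mM MgCl2 and 2 mM CaCl2, 30 min at 4° C with [3H]-rac-2-(1,2,3,4-tetrahydro-1-naphthyl)-2-imidazoline. Competitors 10 pM–30 μM, duplicates; non-specific binding with 10 μM unlabelled ligand; filtration and scintillation counting.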

In assay [3] the target is TAAR1 (Mus musculus, UniProt Q923Y8). Described as above. The method in brief: as §1
[4] abbreviates: mouse/rat, cell not marked 'rat', radioligand [3H]-rac-2-(1,2,3,4-tetrahydro-1-naphthyl)-2-imidazoline, 4° C., read-out: Ki (μM) mouse/rat.

Broadly, the Kd is the equilibrium constant for the complex coming apart.

Where two headings read alike, the source gives them in different places.

As to `NC1=N[C@@H](c2ccc(Br)cc2Cl)CO1` [Example 316, (+)-(S)-4-(4-Bromo-2-chloro-phenyl)-4,5-dihydro-oxazol-2-ylamine], at TAAR1 [1], the Ki worked out at 0.0003 µM. On to `CC1(c2ccc(F)cc2Cl)COC(N)=N1` (racemic) [Example 318, (RS)-4-(2-Chloro-4-fluoro-phenyl)-4-methyl-4,5-dihydro-oxazol-2-ylamine], for which, at TAAR1 [1], the Ki stood at 0.002 µM. On the same count and under the same terms, the figure for `CCC(C[C@H]1COC(N)=N1)c1cccc(Cl)c1` (stereo partly drawn) [Example 287, (S)-4-[2-(3-Chloro-phenyl)-butyl]-4,5-dihydro-oxazol-2-ylamine] is 0.0027 µM; for `NC1=N[C@@H](COc2ccc(Cl)c(Cl)c2)CO1` [Example 284, (S)-4-(3,4-Dichloro-phenoxymethyl)-4,5-dihydro-oxazol-2-ylamine] it is 0.0028 µM. On the same count and under the same terms, the figure for `NC1=N[C@@H](COc2ccc(Br)cc2)CO1` [Example 310, (S)-4-(4-Bromo-phenoxymethyl)-4,5-dihydro-oxazol-2-ylamine] is 0.009 µM; for `NC1=N[C@H](c2ccc(Br)cc2Cl)CO1` [Example 315, (−)-(R)-4-(4-Bromo-2-chloro-phenyl)-4,5-dihydro-oxazol-2-ylamine] it is 0.0016 µM; for `Cc1ccc(Cl)cc1[C@H]1COC(N)=N1` [Example 314, (+)-(S)-4-(5-Chloro-2-methyl-phenyl)-4,5-dihydro-oxazol-2-ylamine] it is 0.003 µM. Regarding `c1ccc2c(c1)CCCC2C1=NCCN1` (racemic) [[^3H]-rac-2-(1,2,3,4-tetrahydro-1-naphthyl)-2-imidazoline, reference compound], in the assay with TAAR1 [2], the Kd is 60 nM. For `NC1=N[C@@H](c2ccc(Br)c(F)c2)CO1` [Example 321, (+)-(S)-4-(4-Bromo-3-fluoro-phenyl)-4,5-dihydro-oxazol-2-ylamine], the Ki at TAAR1 [1] came out at 0.0014 µM. Still for that read-out and setting: the figure for `CC[C@]1(c2ccc(Cl)cc2)COC(N)=N1` [Example 313, (S)-4-(4-Chloro-phenyl)-4-ethyl-4,5-dihydro-oxazol-2-ylamine] is 0.005 µM; for `Cc1cc([C@@]2(C)COC(N)=N2)ccc1Cl` [Example 281, (S)-4-(4-Chloro-3-methyl-phenyl)-4-methyl-4,5-dihydro-oxazol-2-ylamine] it is 0.0019 µM. On the same count and under the same terms, the figure for `NC1=N[C@@H](COc2cc(Cl)cc(Cl)c2)CO1` [Example 285, (S)-4-(3,5-Dichloro-phenoxymethyl)-4,5-dihydro-oxazol-2-ylamine] is 0.0045 µM. On the same count and under the same terms, the figure for `CC1(c2cccc(Cl)c2F)COC(N)=N1` (racemic) [Example 311, (RS)-4-(3-Chloro-2-fluoro-phenyl)-4-methyl-4,5-dihydro-oxazol-2-ylamine] is 0.0042 µM; for `NC1=N[C@@H](CCc2ccccc2Br)CO1` [Example 322, (S)-4-[2-(2-Bromo-phenyl)-ethyl]-4,5-dihydro-oxazol-2-ylamine] it is 0.002 µM. On to `CC(C[C@H]1COC(N)=N1)c1ccccc1F` (stereo partly drawn) [Example 217, (S)-4-[2-(2-Fluoro-phenyl)-propyl]-4,5-dihydro-oxazol-2-ylamine], for which the Ki on TAAR1 [3] (setting [4]) was determined as 0.0015 µM. For `C[C@]1(c2ccc(C(F)(F)F)cc2)COC(N)=N1` [Example 147, (S)-4-Methyl-4-(4-trifluoromethyl-phenyl)-4,5-dihydro-oxazol-2-ylamine], the Ki at TAAR1 [3] (setting [4]) came to 0.0041 µM. On to `CC(C[C@H]1COC(N)=N1)c1cccc(C(F)(F)F)c1` (stereo partly drawn) [Example 193, (S)-4-[2-(3-Trifluoromethyl-phenyl)-propyl]-4,5-dihydro-oxazol-2-ylamine], for which, on TAAR1 [3] (setting [4]), the Ki came out at 0.0043 µM. Take `CCC(C[C@H]1COC(N)=N1)c1cccc(F)c1` (stereo partly drawn) [Example 340, (S)-4-[2-(3-Fluoro-phenyl)-butyl]-4,5-dihydro-oxazol-2-ylamine]: at TAAR1 [3] (setting [4]), the Ki was determined as 0.002 µM.

In the case of `NC1=NC(c2ccccc2Br)CO1` (racemic) [Example 237, (RS)-4-(2-Bromo-phenyl)-4,5-dihydro-oxazol-2-ylamine], the Ki on TAAR1 [3] came to 0.0025 µM.
